Literature values in patent US5702721A (LTS Lohmann Therapie-Systeme GmbH & Co. KG, priority 1989, dated 1997).

Conditions: supersaturated solution resulting on evaporation of the highly volatile component of a mixture of volatile and non-volatile solvents

Row | SMILES | skin penetration / resorption intensification
1 | COC(=O)C1=C(C)NC(C)=C(C(=O)OC)C1c1ccccc1[N+](=O)[O-] [nifedipine] | confirmed these effects
2 | C[C@]12C=CC(=O)C=C1[C@@H](F)C[C@H]1[C@@H]3C[C@@H](O)[C@](O)(C(=O)CO)[C@@]3(C)C[C@H](O)[C@@]12F [fluocinolone] | higher skin penetration
